Measurements from patent US4535081A, “Antiallergic and antiulcer 1-oxo-1H-thiazolo[3,2-a]pyrimidine-2-carboxamides and intermediates therefor” (Pfizer Inc., priority 1983, dated 1985).
“Also recorded” adds a separate entry of the source.

Experiments:
[1] = system: IgG (hyperimmune antiserum) PCA reaction; assay: Oral activity in PCA test, IgG; format: in vivo; conditions: Rattus norvegicus, 3 mg./kg., read-out: Oral Activity (% of Protection) in the PCA Test, IgG
[2] = system: passive cutaneous anaphylaxis (PCA); assay: Intravenous activity in PCA test; format: in vivo, rat
Procedure: In the PCA test, normal animals are injected intradermally (i.d.) with antibodies contained in serum obtained from actively sensitized animals. The animals are then challenged intravenously with antigen mixed with a dye such as Evans' Blue. The increased capillary permeability caused by the antigen-antibody reaction causes the dye to leak from the site of the antibody injection. The test animals are then asphyxiated and the intensity of the reaction determined by measuring the diameter and intensity of the blue coloration on the inner surface of the animals' skin.
The ability of agents to interfere with PCA reactions is measured in male Charles River Wistar rats, 170-210 g. Reaginic antiserum, rich in IgE antibodies, is prepared according to Petillo et al., Int. Arch. […] Hyperimmune antiserum rich in IgG antibodies to hen egg albumin is prepared according to Orange et al., J. Exptl. […] Forty-eight hours prior to antigen challenge, the reaginic antiserum is injected intradermally (i.d.) into the shaved skin of a normal rat's back; 5 hours before challenge the hyperimmune antisera is similarly injected. […] The difference is expressed as percent blockage due to the compound employed.

[3] = system: plasma histamine rise in rats passively sensitized with IgE-rich antiserum; assay: Passive systemic anaphylaxis, plasma histamine rise; format: in vivo, rat
isolated rat monocytes = assay: Synthesis and release of SRC in isolated monocytes stimulated by an ionophore; format: cell-based
[4] = system: pentagastrin-stimulated acid output; assay: Pentagastrin-stimulated acid output in Heidenhain pouch dogs; format: in vivo, dog; conditions: 5 mg/kg, i.v.
[5] = system: urinary volume output and sodium and potassium excretion; assay: Diuretic activity; format: in vivo; conditions: oral
Procedure: When given orally, it caused a dose-related increase in urinary volume output at doses in the range 0.3 to 5 mg/kg. […] These findings indicate that the dose-response range for diuretic activity is considerably higher than that for antiulcer effects and just below that for antiallergy effects (1 to 10 mg/kg).

blood glucose levels = assay: Blood glucose in fasted rats; format: in vivo, rat; conditions: fasted 24 hours; oral 10, 30 or 100 mg/kg
dogs = assay: Toleration study, oral, seven days, dogs; format: in vivo, dog
Procedure: In toleration studies, III were given orally by gavage to dogs for a period of seven days at doses of 50, 150 and 300 mg/kg/day.

[6] = Oral absorption and plasma concentrations, rats; format: in vivo, rat
Procedure: This is supported by the observations of plasma concentrations of 3 to 7 μg/ml one hour after oral administration of III, 50 to 300 mg/kg.

Stability = format: physicochemical; conditions: solid state, with standard diluents / inert ingredients, or in solution
[7] = oral, 7 days, 50, 150 and 300 mg/kg/day

In the case of O=C(Nc1nnn[nH]1)c1cnc2sc3c(n2c1=O)CCCC3 [Compound III, N-(5-Tetrazolyl)-1-oxo-1H-cyclohexenothiazolo[3,2-a]pyrimidine-2-carboxamide], the inhibition in vivo at 3 mg/kg [1] is reported as 45%, the “intravenous activity range in the PCA test” value [2] is reported as 0.03 to 1.0 mg/kg and the “potency relative to Intal in the PCA test” value ([2]; vs Intal) is reported as about 26 times. The “potency relative to Intal, passive systemic anaphylaxis” value ([3]; i.v., vs Intal) was 13 times, the “passive systemic anaphylaxis” value ([3]; rat, in vivo) was “prevented” and the “synthesis and release of SRC” value (isolated rat monocytes) was “is not inhibited”. The pentagastrin-stimulated acid output [4] was “does not affect pentagastrin-stimulated acid output”, the “dose range of dose-related increase in urinary volume output” value [5] was 0.3 to 5 mg/kg and the “maximum increase in urinary volume output” value ([5]; 0.3 to 5 mg/kg) was “twofold increase in volume output”. The “sodium and potassium excretion” value ([5]; 0.3 to 5 mg/kg) was “an increase in sodium and potassium excretion was observed”, the “urinary concentrations of sodium and potassium ions” value ([5]; 0.3 to 5 mg/kg) was “unchanged” and the blood glucose levels (blood glucose levels) was “did not exhibit any changes in blood glucose levels”. The “emetic effect, capsule after meals” value (dogs; capsule after, rather than before, meals) was “could be eliminated”, the gross pathological changes (dogs; [7]) was “No gross pathological changes were observed” and the “microscopic examination of liver, kidney, heart and lung” value (dogs; [7]) was “did not reveal any changes”. For the same compound, the plasma concentration ([6]; one hour after oral 50 to 300 mg/kg, 60 min) was 3 to 7 µg/mL, the oral absorption ([6]; ratio of comparably effective oral and intravenous doses, PCA test) was “good oral absorption” and the stability (Stability) was “highly stable in a pure solid state, as well as in the presence of standard pharmaceutical diluents and in solution; also recorded: exceptionally good stability”.
